The values below come from ChEMBL document CHEMBL3576815, “Tankyrase 1 Inhibitors with Drug-like Properties Identified by Screening a DNA-Encoded Chemical Library” (J Med Chem, 2015).

The target in assay [1] is T1, Poly [ADP-ribose] polymerase tankyrase-2 (Homo sapiens, UniProt Q9H2K2).
T1 sequence (Q9H2K2 whole entry): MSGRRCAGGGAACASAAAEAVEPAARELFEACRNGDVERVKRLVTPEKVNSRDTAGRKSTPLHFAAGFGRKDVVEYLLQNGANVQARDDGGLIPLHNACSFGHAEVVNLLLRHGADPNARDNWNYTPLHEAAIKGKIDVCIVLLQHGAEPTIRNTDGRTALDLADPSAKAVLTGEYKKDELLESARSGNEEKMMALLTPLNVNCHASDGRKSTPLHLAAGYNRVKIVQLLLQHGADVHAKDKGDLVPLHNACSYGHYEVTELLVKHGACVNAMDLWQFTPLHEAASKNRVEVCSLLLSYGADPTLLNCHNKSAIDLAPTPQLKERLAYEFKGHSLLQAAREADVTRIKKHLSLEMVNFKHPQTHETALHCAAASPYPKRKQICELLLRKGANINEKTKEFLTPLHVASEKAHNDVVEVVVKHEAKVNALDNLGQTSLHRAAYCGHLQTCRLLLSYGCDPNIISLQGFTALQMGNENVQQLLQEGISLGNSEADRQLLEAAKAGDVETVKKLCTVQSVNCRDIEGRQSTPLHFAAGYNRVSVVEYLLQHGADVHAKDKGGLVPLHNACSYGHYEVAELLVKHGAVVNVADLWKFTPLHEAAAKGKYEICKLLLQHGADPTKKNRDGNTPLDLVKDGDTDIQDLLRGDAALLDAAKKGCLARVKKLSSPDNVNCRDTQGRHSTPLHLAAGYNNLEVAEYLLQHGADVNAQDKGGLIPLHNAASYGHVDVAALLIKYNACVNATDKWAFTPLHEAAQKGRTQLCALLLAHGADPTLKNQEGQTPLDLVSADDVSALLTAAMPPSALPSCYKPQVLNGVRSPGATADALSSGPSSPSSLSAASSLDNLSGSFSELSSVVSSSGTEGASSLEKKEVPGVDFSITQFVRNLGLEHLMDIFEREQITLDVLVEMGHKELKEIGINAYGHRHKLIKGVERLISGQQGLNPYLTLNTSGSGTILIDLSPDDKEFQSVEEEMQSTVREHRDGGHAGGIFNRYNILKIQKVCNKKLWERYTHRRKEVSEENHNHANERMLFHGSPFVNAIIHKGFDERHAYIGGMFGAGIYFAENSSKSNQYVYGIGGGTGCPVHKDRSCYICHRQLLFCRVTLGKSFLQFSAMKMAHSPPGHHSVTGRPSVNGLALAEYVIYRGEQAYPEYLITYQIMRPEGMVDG
The experiment in a line: Inhibition of tankyrase 2 catalytic domain (unknown origin) expressed in Escherichia coli BL21 (DE3) assessed as reduction in ADP-ribosyl transferase activity using NAD+ by chemiluminescence detection based assay.

For assay [2], the target named is T2, Protein mono-ADP-ribosyltransferase PARP10 (Homo sapiens, UniProt Q53GL7).
T2 sequence (Q53GL7 whole entry): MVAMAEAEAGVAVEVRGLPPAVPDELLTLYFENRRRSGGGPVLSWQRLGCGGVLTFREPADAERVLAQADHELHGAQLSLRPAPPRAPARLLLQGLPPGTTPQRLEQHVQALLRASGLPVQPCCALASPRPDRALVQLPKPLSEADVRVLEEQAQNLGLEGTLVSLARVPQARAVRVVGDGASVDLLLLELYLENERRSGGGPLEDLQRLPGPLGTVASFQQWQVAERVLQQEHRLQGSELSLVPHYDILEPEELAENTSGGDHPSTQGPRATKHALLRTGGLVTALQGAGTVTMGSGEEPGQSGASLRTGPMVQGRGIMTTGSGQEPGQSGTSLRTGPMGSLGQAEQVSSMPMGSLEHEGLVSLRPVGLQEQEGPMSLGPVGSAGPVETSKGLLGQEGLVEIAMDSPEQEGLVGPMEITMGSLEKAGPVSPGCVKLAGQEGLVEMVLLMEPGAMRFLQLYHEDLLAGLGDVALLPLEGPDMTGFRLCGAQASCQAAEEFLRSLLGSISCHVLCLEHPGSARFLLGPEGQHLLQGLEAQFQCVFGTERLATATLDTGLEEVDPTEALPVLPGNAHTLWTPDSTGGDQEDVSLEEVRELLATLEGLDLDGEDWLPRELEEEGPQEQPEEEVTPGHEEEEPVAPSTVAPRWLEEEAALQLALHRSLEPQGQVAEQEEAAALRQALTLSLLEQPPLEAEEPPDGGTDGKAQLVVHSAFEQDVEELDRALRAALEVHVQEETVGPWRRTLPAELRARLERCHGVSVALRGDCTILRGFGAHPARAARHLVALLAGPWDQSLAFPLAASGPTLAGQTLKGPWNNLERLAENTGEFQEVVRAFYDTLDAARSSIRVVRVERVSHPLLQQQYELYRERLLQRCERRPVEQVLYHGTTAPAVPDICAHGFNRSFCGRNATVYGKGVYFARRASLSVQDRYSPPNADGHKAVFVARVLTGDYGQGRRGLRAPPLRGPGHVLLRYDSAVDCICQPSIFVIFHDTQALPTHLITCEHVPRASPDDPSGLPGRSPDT
Put plainly: Inhibition of full length PARP10 (unknown origin) expressed in Escherichia coli BL21 (DE3) assessed as reduction in ADP-ribosyl transferase activity using NAD+ by chemiluminescence detection based assay.

The target of assay [3] is T3, Poly [ADP-ribose] polymerase tankyrase-1 (Homo sapiens, UniProt O95271).
T3 sequence (O95271 whole entry): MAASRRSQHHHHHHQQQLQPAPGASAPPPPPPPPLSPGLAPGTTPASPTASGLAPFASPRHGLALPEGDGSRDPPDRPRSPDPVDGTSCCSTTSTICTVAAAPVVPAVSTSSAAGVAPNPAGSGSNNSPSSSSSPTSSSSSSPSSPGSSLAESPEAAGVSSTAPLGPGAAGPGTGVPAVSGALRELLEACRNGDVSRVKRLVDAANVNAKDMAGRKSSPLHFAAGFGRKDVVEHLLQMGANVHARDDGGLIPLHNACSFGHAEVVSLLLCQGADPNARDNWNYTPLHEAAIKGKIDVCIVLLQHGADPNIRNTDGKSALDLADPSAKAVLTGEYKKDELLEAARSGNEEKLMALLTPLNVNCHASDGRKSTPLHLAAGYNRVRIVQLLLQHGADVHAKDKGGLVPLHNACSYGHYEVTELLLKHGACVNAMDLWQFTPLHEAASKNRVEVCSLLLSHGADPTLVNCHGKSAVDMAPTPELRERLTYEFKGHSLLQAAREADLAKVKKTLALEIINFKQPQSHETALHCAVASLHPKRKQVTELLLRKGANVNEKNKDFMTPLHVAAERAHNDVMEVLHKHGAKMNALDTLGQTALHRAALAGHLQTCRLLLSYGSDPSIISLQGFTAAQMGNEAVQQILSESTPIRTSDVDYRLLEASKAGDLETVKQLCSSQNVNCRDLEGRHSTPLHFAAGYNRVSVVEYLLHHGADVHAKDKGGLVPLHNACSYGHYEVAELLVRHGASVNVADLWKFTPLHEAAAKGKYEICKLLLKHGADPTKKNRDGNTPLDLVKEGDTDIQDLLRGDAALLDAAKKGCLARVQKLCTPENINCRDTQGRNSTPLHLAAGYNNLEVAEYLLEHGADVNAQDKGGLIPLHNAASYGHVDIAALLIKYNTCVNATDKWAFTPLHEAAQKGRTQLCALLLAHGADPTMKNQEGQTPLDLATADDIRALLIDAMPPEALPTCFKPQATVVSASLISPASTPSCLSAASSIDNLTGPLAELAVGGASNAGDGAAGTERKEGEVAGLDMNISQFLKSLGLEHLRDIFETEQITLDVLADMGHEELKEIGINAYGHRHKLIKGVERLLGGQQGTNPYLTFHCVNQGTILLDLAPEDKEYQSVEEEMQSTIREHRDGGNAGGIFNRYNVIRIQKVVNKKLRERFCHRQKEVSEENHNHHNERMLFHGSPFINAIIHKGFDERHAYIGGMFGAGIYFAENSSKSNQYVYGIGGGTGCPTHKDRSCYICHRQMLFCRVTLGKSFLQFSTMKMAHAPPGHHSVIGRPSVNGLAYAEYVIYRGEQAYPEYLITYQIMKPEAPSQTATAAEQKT
Put plainly: Inhibition of hexa-histidine tagged recombinant tankyrase 1 biotinylated catalytic domain (amino acids 1106 to 1325) (unknown origin) expressed in Escherichia coli BL21 (DE3) assessed as reduction in ADP-ribosyl transferase activity using NAD+ by chemiluminescence detection based assay.

Assay [4] addresses Poly [ADP-ribose] polymerase 1 (Homo sapiens, UniProt P09874). Put plainly: Inhibition of full length PARP1 (unknown origin) expressed in Escherichia coli BL21 (DE3) assessed as reduction in ADP-ribosyl transferase activity using NAD+ by chemiluminescence detection based assay.

SMILES strings stand for the structures.

Poly [ADP-ribose] polymerase 1, sequence (P09874 whole entry): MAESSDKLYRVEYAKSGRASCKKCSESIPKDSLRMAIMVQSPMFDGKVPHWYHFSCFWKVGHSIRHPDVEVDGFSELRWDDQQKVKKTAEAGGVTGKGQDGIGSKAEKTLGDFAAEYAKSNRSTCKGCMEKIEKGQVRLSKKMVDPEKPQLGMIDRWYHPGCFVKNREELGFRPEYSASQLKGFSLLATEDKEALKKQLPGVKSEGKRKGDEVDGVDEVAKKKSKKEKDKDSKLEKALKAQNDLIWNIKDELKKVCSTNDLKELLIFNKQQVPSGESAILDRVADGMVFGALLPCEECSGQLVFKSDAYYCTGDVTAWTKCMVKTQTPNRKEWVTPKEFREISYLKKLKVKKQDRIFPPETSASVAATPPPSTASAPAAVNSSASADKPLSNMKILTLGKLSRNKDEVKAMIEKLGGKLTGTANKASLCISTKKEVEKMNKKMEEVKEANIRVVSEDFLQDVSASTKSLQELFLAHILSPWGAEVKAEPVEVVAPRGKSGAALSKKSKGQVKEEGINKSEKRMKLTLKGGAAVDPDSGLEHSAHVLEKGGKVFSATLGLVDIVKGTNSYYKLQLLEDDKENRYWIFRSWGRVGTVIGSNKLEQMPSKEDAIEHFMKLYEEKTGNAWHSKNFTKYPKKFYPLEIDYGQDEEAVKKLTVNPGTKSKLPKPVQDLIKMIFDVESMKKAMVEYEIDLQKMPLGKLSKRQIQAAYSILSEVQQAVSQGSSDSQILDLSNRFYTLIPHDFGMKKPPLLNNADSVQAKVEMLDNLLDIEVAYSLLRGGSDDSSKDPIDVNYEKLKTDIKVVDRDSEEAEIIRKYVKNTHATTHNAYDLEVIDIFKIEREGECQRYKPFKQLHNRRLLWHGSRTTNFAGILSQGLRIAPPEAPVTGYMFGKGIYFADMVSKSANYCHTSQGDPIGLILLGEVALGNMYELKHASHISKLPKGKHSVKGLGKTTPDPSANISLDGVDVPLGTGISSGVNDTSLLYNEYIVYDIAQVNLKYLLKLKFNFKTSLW

As for `O=C1CCN(c2ccccc2C(=O)NCCc2ccc(Br)cc2)C(=O)N1`, the IC50 is 910 nM in assay [1] (read-out: IC50), 912 nM in assay [1] (read-out: pIC50 (converted)), above 50000 nM in assay [2] and 350 nM in assay [3].

Turning to `COc1ccc2c(c1)C(CC(=O)NCCNC(=O)c1ccccc1N1CCC(=O)NC1=O)CC2=O` (configuration not stated), the IC50 in assay [1] (read-out: IC50) was 7900 nM; in assay [1] (read-out: pIC50 (converted)), 7940 nM; in assay [4], 41 nM; in assay [3], 290 nM.

`O=C1CCN(c2ccccc2C(=O)NCCc2ccc(Cl)cc2)C(=O)N1`: the IC50 is 2400 nM in assay [1] (read-out: IC50), 2400 nM in assay [1] (read-out: pIC50 (converted)), above 50000 nM in assay [2] and 570 nM in assay [3].

Turning to `O=C1CCN(c2ccccc2C(=O)NCCc2ccc(Cl)cc2Cl)C(=O)N1`, the IC50 in assay [4] was 110 nM; in assay [2], above 50000 nM; in assay [3], 700 nM.

As for `COc1ccc2c(c1)C(CC(=O)N1CCN(C(=O)c3ccccc3N3CCC(=O)NC3=O)CC1)CC2=O` (configuration not stated), the IC50 is 330 nM in assay [1] (read-out: IC50); 331 nM in assay [1] (read-out: pIC50 (converted)); 200 nM in assay [4]; 34000 nM in assay [2]; 290 nM in assay [3].

Regarding `O=C1CCN(c2ccccc2C(=O)NCCc2nc(-c3ccccn3)no2)C(=O)N1`, the IC50 in assay [1] (read-out: IC50) was 8100 nM; in assay [1] (read-out: pIC50 (converted)), 8130 nM; in assay [4] it was 260 nM; in assay [2], 2200 nM; in assay [3], 250 nM.

Regarding `COc1ccc2c(c1)C(CC(=O)N[C@@H](CNC(=O)c1ccccc1N1CCC(=O)NC1=O)C(N)=O)CC2=O` (some centres not stated), the IC50 was 470 nM in assay [1] (read-out: IC50); 468 nM in assay [1] (read-out: pIC50 (converted)); 28 nM in assay [4]; above 50000 nM in assay [2]; 370 nM in assay [3].

As for `O=C1CCN(c2ccccc2C(=O)NCc2ccc(-n3cccn3)cc2)C(=O)N1`, the IC50 is 8300 nM in assay [1] (read-out: IC50); 8320 nM in assay [1] (read-out: pIC50 (converted)); 220 nM in assay [4]; above 50000 nM in assay [2]; 330 nM in assay [3].

As for `CN(Cc1ccc(-n2cccn2)cc1)C(=O)c1ccccc1N1CCC(=O)NC1=O`, the IC50 in assay [3] worked out at 2500 nM.

As for `O=C1CCN(c2ccccc2C(=O)NCCc2ccccc2)C(=O)N1`, in assay [3], the IC50 was 4600 nM.
